Measurements published in PubChem BioAssay (NCI).
“And” between values parts separate entries of the source, which are not always exact repeats. Equal values may be shown once.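 These data come from cells grown in 96-well plates and exposed to compound for 48 hours at five concentrations. GI50 marks 50% less growth. TGI denotes the concentration required for complete inhibition of growth.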

Columns and labels:
Experiment in all cases: DTP human tumour cell line panel, 48 h
DU-145 prostate = test system: DU-145 prostate
SR leukemia = test system: SR leukemia
MDA-MB-435 = test system: MDA-MB-435
SK-MEL-28 melanoma = test system: SK-MEL-28 melanoma
SF-539 CNS = test system: SF-539 CNS
NCI/ADR-RES ovarian = test system: NCI/ADR-RES ovarian
HS 578T breast = test system: HS 578T breast
SK-MEL-2 melanoma = test system: SK-MEL-2 melanoma
PC-3 prostate = test system: PC-3 prostate
HCT-15 colon = test system: HCT-15 colon
MDA-MB-231 breast = test system: MDA-MB-231 breast
HOP-92 NSCLC = test system: HOP-92 NSCLC
ACHN renal = test system: ACHN renal
HT29 colon = test system: HT29 colon
SK-MEL-5 melanoma = test system: SK-MEL-5 melanoma
UACC-257 melanoma = test system: UACC-257 melanoma
SF-295 CNS = test system: SF-295 CNS
TK-10 renal = test system: TK-10 renal
LOX IMVI melanoma = test system: LOX IMVI melanoma
UACC-62 melanoma = test system: UACC-62 melanoma
T-47D breast = test system: T-47D breast
SK-OV-3 ovarian = test system: SK-OV-3 ovarian
MOLT-4 leukemia = test system: MOLT-4 leukemia
NCI-H23 lung = test system: NCI-H23 lung
OVCAR-3 ovarian = test system: OVCAR-3 ovarian
HCC-2998 colon = test system: HCC-2998 colon
MALME-3M melanoma = test system: MALME-3M melanoma
SNB-75 CNS = test system: SNB-75 CNS
EKVX NSCLC = test system: EKVX NSCLC
OVCAR-5 ovarian = test system: OVCAR-5 ovarian
SNB-19 CNS = test system: SNB-19 CNS
SN12C renal = test system: SN12C renal
HOP-62 NSCLC = test system: HOP-62 NSCLC
UO-31 renal = test system: UO-31 renal
A549 NSCLC = test system: A549 NSCLC
SF-268 CNS = test system: SF-268 CNS
KM12 colon = test system: KM12 colon
MCF7 breast = test system: MCF7 breast
NCI-H460 lung = test system: NCI-H460 lung
A498 renal = test system: A498 renal
SW-620 colon = test system: SW-620 colon
CAKI-1 renal = test system: CAKI-1 renal
NCI-H226 lung = test system: NCI-H226 lung
HCT-116 colon = test system: HCT-116 colon
K-562 leukemia = test system: K-562 leukemia
BT-549 breast = test system: BT-549 breast
RXF 393 renal = test system: RXF 393 renal
OVCAR-8 ovarian = test system: OVCAR-8 ovarian
COLO 205 colon = test system: COLO 205 colon
OVCAR-4 ovarian = test system: OVCAR-4 ovarian
IGROV1 ovarian = test system: IGROV1 ovarian
RPMI-8226 leukemia = test system: RPMI-8226 leukemia
786-0 renal = test system: 786-0 renal
M14 melanoma = test system: M14 melanoma
NCI-H522 lung = test system: NCI-H522 lung
HL-60(TB) leukemia = test system: HL-60(TB) leukemia
U251 CNS = test system: U251 CNS
CCRF-CEM leukemia = test system: CCRF-CEM leukemia

Q: With `Cn1cc(-c2cc3c(Nc4ccc(CC(=O)Nc5cc(C(C)(C)C)on5)cc4)ncnc3[nH]2)cn1` as the compound, how does the GI50 (DU-145 prostate) read?
A: 830 nM and 491 nM

Q: And the TGI (DU-145 prostate)?
A: 3.84 µM and 2.89 µM

Q: And the GI50 (SR leukemia)?
A: 328 nM and 324 nM

Q: What about the TGI (SR leukemia) of the same compound?
A: > 53.7 µM

Q: And the GI50 (MDA-MB-435)?
A: 845 nM and 944 nM

Q: And the TGI (MDA-MB-435)?
A: 2.95 µM and 4.29 µM

Q: And the GI50 (SK-MEL-28 melanoma)?
A: 804 nM and 508 nM

Q: And the TGI (SK-MEL-28 melanoma)?
A: 3.58 µM and 3 µM

Q: What about the GI50 (SF-539 CNS) of the same compound?
A: 425 nM and 265 nM

Q: And the TGI (SF-539 CNS)?
A: 1700 nM and 1630 nM

Q: What about the GI50 (NCI/ADR-RES ovarian) of the same compound?
A: 16.1 µM and 13.1 µM

Q: And the TGI (NCI/ADR-RES ovarian)?
A: > 100 µM

Q: And the GI50 (HS 578T breast)?
A: 420 nM and 276 nM

Q: And the TGI (HS 578T breast)?
A: 1720 nM and 1560 nM

Q: And the GI50 (SK-MEL-2 melanoma)?
A: 835 nM and 943 nM

Q: And the TGI (SK-MEL-2 melanoma)?
A: 2.8 µM and 3.73 µM

Q: What about the GI50 (PC-3 prostate) of the same compound?
A: 1590 nM and 612 nM

Q: And the TGI (PC-3 prostate)?
A: 11.3 µM and 3.58 µM

Q: And the GI50 (HCT-15 colon)?
A: 3.26 µM and 2.91 µM

Q: And the TGI (HCT-15 colon)?
A: 13.8 µM and 10.3 µM

Q: What about the GI50 (MDA-MB-231 breast) of the same compound?
A: 797 nM and 786 nM

Q: What about the TGI (MDA-MB-231 breast) of the same compound?
A: 5.17 µM and 8.35 µM

Q: And the GI50 (HOP-92 NSCLC)?
A: 1420 nM and 536 nM

Q: What about the TGI (HOP-92 NSCLC) of the same compound?
A: 11.8 µM and 4.39 µM

Q: What about the GI50 (ACHN renal) of the same compound?
A: 1940 nM and 1710 nM

Q: And the TGI (ACHN renal)?
A: 7.36 µM and 6.4 µM

Q: What about the GI50 (HT29 colon) of the same compound?
A: 1100 nM and 1110 nM

Q: What about the TGI (HT29 colon) of the same compound?
A: 6.95 µM and 9.63 µM

Q: And the GI50 (SK-MEL-5 melanoma)?
A: 1400 nM and 1310 nM

Q: And the TGI (SK-MEL-5 melanoma)?
A: 4.77 µM and 4.43 µM

Q: And the GI50 (UACC-257 melanoma)?
A: 2040 nM

Q: And the TGI (UACC-257 melanoma)?
A: 6.96 µM and 6.99 µM

Q: What about the GI50 (SF-295 CNS) of the same compound?
A: 1640 nM and 1320 nM

Q: What about the TGI (SF-295 CNS) of the same compound?
A: 6.21 µM and 6.2 µM

Q: What about the GI50 (TK-10 renal) of the same compound?
A: 2740 nM and 2440 nM

Q: What about the TGI (TK-10 renal) of the same compound?
A: 8.91 µM and 7.4 µM

Q: And the GI50 (LOX IMVI melanoma)?
A: 870 nM and 548 nM

Q: What about the TGI (LOX IMVI melanoma) of the same compound?
A: 6.31 µM and 3.63 µM

Q: And the GI50 (UACC-62 melanoma)?
A: 583 nM and 455 nM

Q: And the TGI (UACC-62 melanoma)?
A: 1710 nM and 1900 nM

Q: And the GI50 (T-47D breast)?
A: 315 nM and 289 nM

Q: What about the TGI (T-47D breast) of the same compound?
A: 6.12 µM and 2.19 µM

Q: And the GI50 (SK-OV-3 ovarian)?
A: 1430 nM and 2020 nM

Q: And the TGI (SK-OV-3 ovarian)?
A: 6.01 µM and 6.84 µM

Q: What about the GI50 (MOLT-4 leukemia) of the same compound?
A: 401 nM and 324 nM

Q: And the TGI (MOLT-4 leukemia)?
A: 11.4 µM and 2.38 µM

Q: And the GI50 (NCI-H23 lung)?
A: 811 nM and 449 nM

Q: And the TGI (NCI-H23 lung)?
A: 3.49 µM and 2.51 µM

Q: What about the GI50 (OVCAR-3 ovarian) of the same compound?
A: 496 nM and 360 nM

Q: And the TGI (OVCAR-3 ovarian)?
A: 2480 nM and 2540 nM

Q: What about the GI50 (HCC-2998 colon) of the same compound?
A: 1340 nM and 652 nM

Q: And the TGI (HCC-2998 colon)?
A: 7.5 µM and 4.82 µM

Q: What about the GI50 (MALME-3M melanoma) of the same compound?
A: 615 nM and 354 nM

Q: And the TGI (MALME-3M melanoma)?
A: 2360 nM and 1750 nM

Q: And the GI50 (SNB-75 CNS)?
A: 655 nM and 133 nM

Q: And the TGI (SNB-75 CNS)?
A: 1780 nM and 2470 nM

Q: And the GI50 (EKVX NSCLC)?
A: 1660 nM and 1810 nM

Q: What about the TGI (EKVX NSCLC) of the same compound?
A: 5.01 µM and 5.31 µM

Q: And the GI50 (OVCAR-5 ovarian)?
A: 1300 nM and 1080 nM

Q: What about the TGI (OVCAR-5 ovarian) of the same compound?
A: 7.18 µM and 6.62 µM

Q: And the GI50 (SNB-19 CNS)?
A: 492 nM and 399 nM

Q: What about the TGI (SNB-19 CNS) of the same compound?
A: 5.31 µM and 8.4 µM

Q: What about the GI50 (SN12C renal) of the same compound?
A: 671 nM and 471 nM

Q: And the TGI (SN12C renal)?
A: 4.05 µM and 4.15 µM

Q: What about the GI50 (HOP-62 NSCLC) of the same compound?
A: 876 nM and 444 nM

Q: What about the TGI (HOP-62 NSCLC) of the same compound?
A: 4.97 µM and 4.58 µM

Q: What about the GI50 (UO-31 renal) of the same compound?
A: 2430 nM and 2330 nM

Q: And the TGI (UO-31 renal)?
A: 7.04 µM and 6.58 µM

Q: And the GI50 (A549 NSCLC)?
A: 2420 nM and 2840 nM

Q: And the TGI (A549 NSCLC)?
A: 8.76 µM and 10.5 µM

Q: And the GI50 (SF-268 CNS)?
A: 444 nM and 348 nM

Q: And the TGI (SF-268 CNS)?
A: 1670 nM and 1180 nM

Q: What about the GI50 (KM12 colon) of the same compound?
A: 59.6 nM and 46.8 nM

Q: What about the TGI (KM12 colon) of the same compound?
A: 2390 nM and 1820 nM

Q: And the GI50 (MCF7 breast)?
A: 352 nM and 259 nM

Q: What about the TGI (MCF7 breast) of the same compound?
A: 10.3 µM and 4.01 µM

Q: What about the GI50 (NCI-H460 lung) of the same compound?
A: 1040 nM and 1260 nM

Q: And the TGI (NCI-H460 lung)?
A: 3.65 µM and 6.22 µM

Q: What about the GI50 (A498 renal) of the same compound?
A: 692 nM and 1070 nM

Q: And the TGI (A498 renal)?
A: 1810 nM and 3030 nM

Q: What about the GI50 (SW-620 colon) of the same compound?
A: 871 nM and 654 nM

Q: What about the TGI (SW-620 colon) of the same compound?
A: 2.75 µM and 5.73 µM

Q: What about the GI50 (CAKI-1 renal) of the same compound?
A: 1250 nM and 1100 nM

Q: And the TGI (CAKI-1 renal)?
A: 7.09 µM and 6.93 µM

Q: And the GI50 (NCI-H226 lung)?
A: 899 nM and 540 nM

Q: What about the TGI (NCI-H226 lung) of the same compound?
A: 4.18 µM and 4.1 µM

Q: And the GI50 (HCT-116 colon)?
A: 680 nM and 337 nM

Q: And the TGI (HCT-116 colon)?
A: 4.86 µM and 1.99 µM

Q: And the GI50 (K-562 leukemia)?
A: 1210 nM and 596 nM

Q: And the TGI (K-562 leukemia)?
A: > 100 µM and 11.2 µM

Q: And the GI50 (BT-549 breast)?
A: 925 nM and 538 nM

Q: What about the TGI (BT-549 breast) of the same compound?
A: 4.12 µM and 3.35 µM

Q: And the GI50 (RXF 393 renal)?
A: 723 nM and 461 nM

Q: And the TGI (RXF 393 renal)?
A: 1880 nM and 1480 nM

Q: And the GI50 (OVCAR-8 ovarian)?
A: 893 nM and 490 nM

Q: And the TGI (OVCAR-8 ovarian)?
A: 5.06 µM and 4.54 µM

Q: What about the GI50 (COLO 205 colon) of the same compound?
A: 364 nM and 354 nM

Q: What about the TGI (COLO 205 colon) of the same compound?
A: 1210 nM and 1650 nM

Q: What about the GI50 (OVCAR-4 ovarian) of the same compound?
A: 592 nM and 547 nM

Q: And the TGI (OVCAR-4 ovarian)?
A: 4 µM and 5.17 µM

Q: And the GI50 (IGROV1 ovarian)?
A: 1100 nM and 948 nM

Q: And the TGI (IGROV1 ovarian)?
A: 5.84 µM and 5.24 µM

Q: And the GI50 (RPMI-8226 leukemia)?
A: 2030 nM and 1070 nM

Q: And the TGI (RPMI-8226 leukemia)?
A: 5.41 µM and 3.8 µM

Q: And the GI50 (786-0 renal)?
A: 995 nM and 536 nM

Q: And the TGI (786-0 renal)?
A: 5.05 µM and 4.71 µM

Q: What about the GI50 (M14 melanoma) of the same compound?
A: 961 nM and 690 nM

Q: And the TGI (M14 melanoma)?
A: 3020 nM and 2300 nM

Q: And the GI50 (NCI-H522 lung)?
A: 469 nM and 528 nM

Q: What about the TGI (NCI-H522 lung) of the same compound?
A: 3.33 µM and 4.48 µM

Q: And the GI50 (HL-60(TB) leukemia)?
A: 1980 nM and 1580 nM

Q: What about the TGI (HL-60(TB) leukemia) of the same compound?
A: 6.63 µM and 5.47 µM

Q: And the GI50 (U251 CNS)?
A: 586 nM and 380 nM

Q: And the TGI (U251 CNS)?
A: 5.84 µM and 6.41 µM

Q: What about the GI50 (CCRF-CEM leukemia) of the same compound?
A: 395 nM and 302 nM
